Data taken from patent US20220324835A1 (Nurix Therapeutics, Inc., priority 2018, published 2022).

What was measured:
Type in all cases: cell-based
T-cell = test: CD25 cell surface staining on T-cells stimulated with anti-CD3 antibody alone (Biological Example 2); details: primary human total T-cells, baseline = anti-CD3/anti-CD28 stimulated cells without inhibitor, read-out: CD25 staining, Anti-CD3 stimulation, fold change over baseline; for fold induction at 1 µM: 1 μM compound; for fold induction at 8 µM: 8 μM compound
primary human B cells = test: B cell activation assay (CD69 on anti-IgM stimulated B cells); details: AUC of dose response curve (10 μM to 1 nM) of CD69 MFI normalized to DMSO control
Protocol: Peripheral blood mononuclear cells (PBMC) were obtained either: 1) by using Ficoll-Paque™ (GE Healthcare) for separation of peripheral blood hematopoietic cells from buffy coats of healthy human donors; or 2) directly from LeukoPak donations. Human primary B cells were isolated from the PBMCs utilizing negative selection with commercial kits following the manufacturer's protocol (StemCells Catalog #17954) to yield >95% CD20+ cells assessed by flow cytometry. Primary human B cells were plated at 0.7-1×10^5 per well in a 96-well plate with Cbl-b inhibitors over a dose ranging from 10 μM to 1 nM and incubated at 37° C. 5% CO2, with a final DMSO concentration of <0.5%. Cells were stimulated with anti-IgM for 20 hours at 37° C. 5% CO2. Surface activation markers on mature CD20^+ IgD^+ B cells were monitored by FACS using an anti-CD69 antibody (BD Biosciences).
Cbl-b inhibitors were tested to determine their ability to induce or enhance surface expression of cell surface markers on B cells (e.g., CD69), which is indicative of B cell activation.
Readouts were reported as area under curve (AUC) of the dose response curve of CD69 mean fluorescence intensity (MFI) normalized to the DMSO control. Baseline for this study was the measurement obtained from primary human B cells treated with DMSO in the presence of 2.5 μg/mL of anti-IgM-F(ab′)2. […] Compounds were ranked into bins according to their readouts as follows: A indicates ≤0.5, B indicates 0.5-1.00, C indicates 1.01-1.50, and D indicates ≥1.51.

[1] = tested on: human T-cells with allogenic immature dendritic cells; test: Allogenic mixed lymphocyte reaction (MLR), T-cell proliferation; details: 120 h, 5 days, baseline T-cells without Cbl-b inhibitor, read-out: Proliferation, fold change over baseline
Protocol: Cbl-b inhibitor effects on primary human T-cells were also evaluated in the context of an allogenic mixed lymphocyte reaction (MLR). Allogenic immature dendritic cells were generated under the following conditions. Peripheral blood mononuclear cells (PBMC) were obtained either: 1) by using Ficoll-Paque™ (GE Healthcare) for separation of peripheral blood hematopoietic cells from huffy coats of healthy human donors; or 2) directly from LeukoPak donations. […] Monocytes were cultured with 30 ng/mL of recombinant human GM-CSF and 20 ng/mL of recombinant human IL-4 for seven days to generate immature dendritic cells. Monocytes and T-cells were either isolated fresh from peripheral blood or thawed from frozen stocks. Human T-cells were isolated, labeled with CFSE and incubated with inhibitors as described above. […] Proliferation of the T-cells was evaluated by flow cytometry.
Readouts for the allogenic mixed lymphocyte reaction were reported as fold change over baseline. Baseline for this study was the measurement obtained from total human T-cells stimulated with allogenic immature dendritic cells, wherein the T-cells were not incubated with a Cbl-b inhibitor (Table 5). Increases in proliferation greater than 2-fold over baseline were considered a positive response (Table 5).

SMILES | fold induction at 1 µM (T-cell) | fold induction at 8 µM (T-cell) | CD69 MFI AUC (primary human B cells) | fold induction at 3 µM [1] | fold induction at 10 µM [1]
Cn1cnnc1CC1(c2cccc(N3Cc4c(cc(CN5CC[C@@H](C#N)C5)cc4C(F)(F)F)C3=O)c2)COC1 [Compound 421, (R)-1-((2-(3-(3-((4-methyl-4H-1,2,4-triazol-3-yl)methyl)oxetan-3-yl)phenyl)-3-oxo-7-(trifluoromethyl)isoindolin-5-yl)methyl)pyrrolidine-3-carbonitrile] | > 1 | > 1 | – | – | –
Cn1cnnc1CC1(c2cccc(NC(=O)c3nc4c(C(F)(F)F)cccc4[nH]3)c2)COC1 [Compound 335, N-(3-{3-[(4-methyl-1,2,4-triazol-3-yl)methyl]oxetan-3-yl}phenyl)-4-(trifluoromethyl)-1H-1,3-benzodiazole-2-carboxamide] | – | – | B (B indicates 0.5-1.00) | < 2 | < 2
Cc1cc(C(=O)Nc2cccc([C@@H](C)Cc3nncn3C)c2)nc(C2CC2)n1 [Compound 325, (S)-2-Cyclopropyl-6-methyl-N-(3-(1-(4-methyl-4H-1,2,4-triazol-3-yl)propan-2-yl)phenyl)pyrimidine-4-carboxamide] | – | – | C (C indicates 1.01-1.50) | < 2 | < 2
Cn1cnnc1CC1(c2cccc(NC(=O)c3cc(CN4CC[C@H](F)C4)cc(C4CC4)n3)c2)COC1 [Compound 496, 6-cyclopropyl-4-{[(3S)-3-fluoropyrrolidin-1-yl]methyl}-N-(3-{3-[(4-methyl-1,2,4-triazol-3-yl)methyl]oxetan-3-yl}phenyl)pyridine-2-carboxamide] | > 1 | – | – | – | –
Cn1cnnc1CC1(c2cccc(N3Cc4c(cc(CN5CCC[C@H](F)C5)cc4C(F)(F)F)C3=O)c2)COC1 [Compound 432, 6-{[(3S)-3-fluoropiperidin-1-yl]methyl}-2-(3-{3-[(4-methyl-4H-1,2,4-triazol-3-yl)methyl]oxetan-3-yl}phenyl)-4-(trifluoromethyl)-2,3-dihydro-1H-isoindol-1-one] | > 1 | – | – | – | –
Cc1cc(C(=O)Nc2cccc(C3(Cc4nncn4C)COC3)c2)nc(C2CC2)n1 [Compound 336, 2-cyclopropyl-6-methyl-N-(3-(3-((4-methyl-4H-1,2,4-triazol-3-yl)methyl)oxetan-3-yl)phenyl)pyrimidine-4-carboxamide] | – | – | D (D indicates ≥1.51) | < 2 | > 3.01
C[C@@H](c1cc2c(c(C(F)(F)F)c1)CN(c1cccc(C3(Cc4nncn4C)COC3)c1)C2=O)N1C[C@H]2C[C@H]2C1 [Compound 541a, 6-((1S)-1-(3-azabicyclo[3.1.0]hexan-3-yl)ethyl)-2-(3-(3-((4-methyl-4H-1,2,4-triazol-3-yl)methyl)oxetan-3-yl)phenyl)-4-(trifluoromethyl)isoindolin-1-one] | > 1 | – | – | – | –
C[C@H](Cc1nncn1C)c1cccc(N2Cc3c(cccc3C(F)(F)F)C2=O)c1 [Compound 255a, (R)-2-(3-(1-(4-methyl-4H-1,2,4-triazol-3-yl)propan-2-yl)phenyl)-4-(trifluoromethyl)isoindolin-1-one] | – | – | C (C indicates 1.01-1.50) | < 2 | < 2
C[C@H](c1cc2c(c(C(F)(F)F)c1)CN(c1cccc(C3(Cc4nncn4C)COC3)c1)C2=O)N1CCC(C)(F)CC1 [Example 553b, (R)-6-(1-(4-fluoro-4-methylpiperidin-1-yl)ethyl)-2-(3-(3-((4-methyl-4H-1,2,4-triazol-3-yl)methyl)oxetan-3-yl)phenyl)-4-(trifluoromethyl)isoindolin-1-one] | > 1 | – | – | – | –
C[C@H](Cc1nncn1C)c1cccc(NC(=O)c2n[nH]c3c2CCC3)c1 [Compound 313, (R)-N-(3-(1-(4-Methyl-4H-1,2,4-triazol-3-yl)propan-2-yl)phenyl)-1,4,5,6-tetrahydrocyclopenta[c]pyrazole-3-carboxamide] | – | – | B (B indicates 0.5-1.00) | < 2 | < 2
C[C@@H](c1cc2c(c(C(F)(F)F)c1)CN(c1cccc(C3(Cc4nncn4C)COC3)c1)C2=O)N1CCC(C)(F)CC1 [Example 553a, (S)-6-(1-(4-fluoro-4-methylpiperidin-1-yl)ethyl)-2-(3-(3-((4-methyl-4H-1,2,4-triazol-3-yl)methyl)oxetan-3-yl)phenyl)-4-(trifluoromethyl)isoindolin-1-one] | > 1 | – | – | – | –
C[C@H](Cc1nncn1C)c1cccc(NC(=O)c2cccc(C(F)(F)F)n2)c1 [Compound 183a, (R)-N-(3-(1-(4-methyl-4H-1,2,4-triazol-3-yl)propan-2-yl)phenyl)-6-(trifluoromethyl)picolinamide] | – | – | C (C indicates 1.01-1.50) | < 2 | < 2
Cn1cnnc1C(F)(F)[C@](C)(F)c1cccc(N2Cc3c(cc(CN4CCC(F)(F)C4)cc3C(F)(F)F)C2=O)c1 [Compound 448, (R)-6-((3,3-difluoropyrrolidin-1-yl)methyl)-2-(3-(1,1,2-trifluoro-1-(4-methyl-4H-1,2,4-triazol-3-yl)propan-2-yl)phenyl)-4-(trifluoromethyl)isoindolin-1-one] | 0.801 to 1 | > 1 | – | – | –
Cn1cnnc1CC1(c2cccc(N3Cc4c(cc(CN5C[C@H]6C[C@H]6C5)cc4C(F)(F)F)C3=O)c2)COC1 [Compound 429, 6-(((1R,5S)-3-azabicyclo[3.1.0]hexan-3-yl)methyl)-2-(3-(3-((4-methyl-4H-1,2,4-triazol-3-yl)methyl)oxetan-3-yl)phenyl)-4-(trifluoromethyl)isoindolin-1-one] | > 1 | > 1 | – | – | –
Cn1cnnc1C(F)(F)[C@](C)(F)c1cccc(N2Cc3c(cc(CN4CC[C@H](F)C4)cc3C(F)(F)F)C2=O)c1 [Compound 447, 6-(((S)-3-fluoropyrrolidin-1-yl)methyl)-2-(3-((R)-1,1,2-trifluoro-1-(4-methyl-4H-1,2,4-triazol-3-yl)propan-2-yl)phenyl)-4-(trifluoromethyl)isoindolin-1-one] | > 1 | > 1 | – | – | –
Cn1cnnc1CC1(c2cccc(N3Cc4c(cc(CN5CC[C@H](F)C5)cc4C(F)(F)F)C3=O)c2)COC1 [Compound 410, 6-{[(3S)-3-fluoropyrrolidin-1-yl]methyl}-2-(3-{3-[(4-methyl-4H-1,2,4-triazol-3-yl)methyl]oxetan-3-yl}phenyl)-4-(trifluoromethyl)-2,3-dihydro-1H-isoindol-1-one] | > 1 | > 1 | – | – | –
Cc1cc(C(=O)Nc2cccc([C@H](C)Cc3nncn3C)c2)nc(C2CC2)n1 [Compound 195, (R)-2-cyclopropyl-6-methyl-N-(3-(1-(4-methyl-4H-1,2,4-triazol-3-yl)propan-2-yl)phenyl)pyrimidine-4-carboxamide] | – | – | D (D indicates ≥1.51) | < 2 | 2.01 to 3
Cn1cnnc1CC1(c2cccc(N3Cc4c(cc(CN5CC6(CC6)C5)cc4C(F)(F)F)C3=O)c2)COC1 [Compound 487, 6-{5-azaspiro[2.3]hexan-5-ylmethyl}-2-(3-{3-[(4-methyl-1,2,4-triazol-3-yl)methyl]oxetan-3-yl}phenyl)-4-(trifluoromethyl)-3H-isoindol-1-one] | > 1 | – | – | – | –
